Reference: the NIST ThermoML archive (doi:10.1016/j.fluid.2010.08.022)

Conditions: 101.33 kPa; for speed of sound: Sing-around technique in a fixed-path interferometer; for mass density: Vibrating tube method; for viscosity: 368.15 K, Visco Elite L rheometer

CCCCCCCC/C=C\CCCCCCCC(=O)[O-].OCC[NH2+]CCO [bis(2-hydroxyethyl)ammonium oleate]
Liquid crystal of unknown type
Conditions | mass density [kg/m3] | speed of sound [m/s]
310.91 K | 956.801 | 1479.3
311.16 K | 956.637 | 1478.5
311.41 K | 956.474 | 1477.7
311.66 K | 956.311 | 1476.9
311.91 K | 956.146 | 1476.1
312.16 K | 955.984 | 1475.3
312.41 K | 955.821 | 1474.5
312.66 K | 955.658 | 1473.7
312.91 K | 955.495 | 1472.9
313.16 K | 955.331 | 1472.1
313.4 K | 955.169 | 1471.3
313.66 K | 955.006 | 1470.5
313.91 K | 954.842 | 1469.7
314.16 K | 954.679 | 1468.9
314.41 K | 954.514 | 1468.2
314.66 K | 954.352 | 1467.4
314.91 K | 954.186 | 1466.6
315.16 K | 954.024 | 1465.8
315.41 K | 953.862 | 1465
315.65 K | 953.699 | 1464.2
315.91 K | 953.533 | 1463.4
316.16 K | 953.369 | 1462.7
316.41 K | 953.207 | 1461.9
316.66 K | 953.043 | 1461.1
316.91 K | 952.88 | 1460.3
317.16 K | 952.716 | 1459.5
317.41 K | 952.551 | 1458.8
317.66 K | 952.388 | 1458
317.91 K | 952.225 | 1457.2
318.16 K | 952.061 | 1456.4
318.41 K | 951.897 | 1455.6
318.66 K | 951.733 | 1454.9
318.91 K | 951.57 | 1454.1
319.16 K | 951.406 | 1453.3
319.41 K | 951.243 | 1452.5
319.66 K | 951.078 | 1451.7
319.91 K | 950.913 | 1451
320.16 K | 950.75 | 1450.2
320.41 K | 950.587 | 1449.4
320.66 K | 950.422 | 1448.6
320.91 K | 950.258 | 1447.8
321.16 K | 950.094 | 1447.1
321.41 K | 949.931 | 1446.3
321.66 K | 949.766 | 1445.5
321.91 K | 949.603 | 1444.7
322.16 K | 949.437 | 1444
322.41 K | 949.275 | 1443.2
322.65 K | 949.109 | 1442.4
322.91 K | 948.946 | 1441.6
323.16 K | 948.781 | 1440.8
323.41 K | 948.617 | 1440.1
323.66 K | 948.452 | 1439.3
323.91 K | 948.289 | 1438.5
324.16 K | 948.125 | 1437.8
324.41 K | 947.96 | 1437
324.66 K | 947.796 | 1436.2
324.9 K | 947.631 | 1435.4
325.16 K | 947.466 | 1434.7
325.41 K | 947.302 | 1433.9
325.66 K | 947.136 | 1433.2
325.91 K | 946.972 | 1432.4
326.16 K | 946.806 | 1431.6
326.41 K | 946.644 | 1430.8
326.66 K | 946.479 | 1430.1
326.91 K | 946.315 | 1429.3
327.16 K | 946.149 | 1428.5
327.41 K | 945.984 | 1427.8
327.66 K | 945.82 | 1427
327.91 K | 945.656 | 1426.2
328.16 K | 945.489 | 1425.5
328.41 K | 945.323 | 1424.7
328.66 K | 945.159 | 1423.9
328.91 K | 944.994 | 1423.2
329.16 K | 944.829 | 1422.4
329.41 K | 944.663 | 1421.6
329.66 K | 944.498 | 1420.8
329.91 K | 944.332 | 1420.1
330.16 K | 944.168 | 1419.3
330.41 K | 944.002 | 1418.5
330.66 K | 943.835 | 1417.8
330.91 K | 943.671 | 1417
331.16 K | 943.506 | 1416.3
331.4 K | 943.341 | 1415.5
331.66 K | 943.175 | 1414.7
331.91 K | 943.009 | 1414
332.16 K | 942.844 | 1413.2
332.41 K | 942.679 | 1412.5
332.66 K | 942.512 | 1411.7
332.91 K | 942.347 | 1410.9
333.16 K | 942.18 | 1410.2
333.41 K | 942.013 | 1409.4
333.66 K | 941.847 | 1408.7
333.91 K | 941.682 | 1407.9
334.16 K | 941.516 | 1407.2
334.41 K | 941.349 | 1406.4
334.66 K | 941.183 | 1405.6
334.91 K | 941.018 | 1404.9
335.16 K | 940.851 | 1404.1
335.41 K | 940.685 | 1403.4
335.66 K | 940.519 | 1402.6
335.91 K | 940.352 | 1401.8
336.16 K | 940.185 | 1401.1
336.41 K | 940.019 | 1400.3
336.66 K | 939.852 | 1399.6
336.91 K | 939.686 | 1398.8
337.16 K | 939.519 | 1398
337.4 K | 939.352 | 1397.3
337.66 K | 939.185 | 1396.5
337.91 K | 939.017 | 1395.8
338.16 K | 938.852 | 1395
338.41 K | 938.684 | 1394.3
338.66 K | 938.517 | 1393.5
338.91 K | 938.351 | 1392.8
339.16 K | 938.182 | 1392
339.41 K | 938.014 | 1391.2
339.66 K | 937.846 | 1390.5
339.91 K | 937.68 | 1389.7
340.15 K | 937.513 | 1389
340.41 K | 937.345 | 1388.2
340.66 K | 937.177 | 1387.5
340.91 K | 937.009 | 1386.7
341.16 K | 936.844 | 1386
341.41 K | 936.674 | 1385.2
341.65 K | 936.507 | 1384.5
341.91 K | 936.339 | 1383.8
342.16 K | 936.171 | 1383
342.41 K | 936.003 | 1382.3
342.66 K | 935.836 | 1381.5
342.9 K | 935.668 | 1380.8
343.15 K | 935.491 | 1380.1

Conditions | viscosity [mPa·s]
Liquid | 37.2
Liquid crystal of unknown type | 37.2
